Where “and” joins values, the source holds several entries; their conditions need not be identical. Equal entries are not always repeated.
Biological target: Aurora kinase B (Homo sapiens, UniProt Q96GD4)
Experiment: Isothermal Titration Calorimetry (ITC)
Details: pH 8; 25 °C
Protocol: Calorimetric titrations were performed in a Microcal iTC 200 microcalorimeter. Freshly purified 5 µM protein (Aurora A/B kinases) was titrated against 100 µM ligand (felodipine/ PTK66) in each case at 25 °C. Proteins and the ligandswere diluted in the final dialysate (20 mM Tris-HCl, pH 8.0, 0.2 mM EDTA and 100 mM KCl) against which the proteins were extensively dialysed to avoid any artefact due to the minor differences in buffer composition. DMSO content was kept exactly same in the cell (not exceeding 0.2% v/v) and syringe to rule out any interference due to DMSO content mismatch. All samples were thoroughly degassed prior to titration and were prepared with the same batch of dialysate to avoid any artefacts from the minor differences in buffer composition. Dilutions of 100 µM felodipine/PTK66 in dialysate containing equal percentage of DMSOserved as controls. The stirring speed was 300 rpm.

Sequence of Aurora kinase B (Q96GD4 whole entry): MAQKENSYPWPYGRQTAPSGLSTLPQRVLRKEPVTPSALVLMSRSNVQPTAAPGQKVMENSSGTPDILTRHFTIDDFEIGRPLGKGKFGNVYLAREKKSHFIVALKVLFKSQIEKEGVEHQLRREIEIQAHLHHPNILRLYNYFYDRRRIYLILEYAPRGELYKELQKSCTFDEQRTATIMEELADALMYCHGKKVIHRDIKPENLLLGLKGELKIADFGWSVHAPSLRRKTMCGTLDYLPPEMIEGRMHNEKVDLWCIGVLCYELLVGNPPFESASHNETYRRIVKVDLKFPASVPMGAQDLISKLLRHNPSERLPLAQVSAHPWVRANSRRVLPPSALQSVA

Kd	SMILES
1140 nM	CCOC(=O)C1=C(C)NC(C)=C(C(=O)OC)[C@H]1c1cccc(Cl)c1Cl [5-O-ethyl 3-O-methyl 4-(2,3-dichlorophenyl)-2,6-dimethyl-1,4-dihydropyridine-3,5-dicarboxylate]
1750 nM and 500 nM	Cc1cc(O)cc(O)c1/N=N/c1nccs1 [5-methyl-4-(2-thiazolylazo)resorcinol]

Reference: BindingDB's records for doi:10.1111/cbdd.12728 (Jawaharlal Nehru Centre For Advanced Scientific Research, 2016)
